Laboratory results as given in patent US6294568A, “5-arylpyrrole derivatives” (priority 1997, dated 2001).

How the values were obtained:
[1] = target: T1, Human COX-2 (Homo sapiens, UniProt P35354); details: ratio of IC50 COX-1 to COX-2; cited from earlier work
T1 construct: endogenous in cells; host or cells: heparinised whole blood of a healthy human donor pretreated with aspirin, stimulated with LPS (own knowledge: COX-2 is induced in monocytes)
T1 sequence (P35354 18-604): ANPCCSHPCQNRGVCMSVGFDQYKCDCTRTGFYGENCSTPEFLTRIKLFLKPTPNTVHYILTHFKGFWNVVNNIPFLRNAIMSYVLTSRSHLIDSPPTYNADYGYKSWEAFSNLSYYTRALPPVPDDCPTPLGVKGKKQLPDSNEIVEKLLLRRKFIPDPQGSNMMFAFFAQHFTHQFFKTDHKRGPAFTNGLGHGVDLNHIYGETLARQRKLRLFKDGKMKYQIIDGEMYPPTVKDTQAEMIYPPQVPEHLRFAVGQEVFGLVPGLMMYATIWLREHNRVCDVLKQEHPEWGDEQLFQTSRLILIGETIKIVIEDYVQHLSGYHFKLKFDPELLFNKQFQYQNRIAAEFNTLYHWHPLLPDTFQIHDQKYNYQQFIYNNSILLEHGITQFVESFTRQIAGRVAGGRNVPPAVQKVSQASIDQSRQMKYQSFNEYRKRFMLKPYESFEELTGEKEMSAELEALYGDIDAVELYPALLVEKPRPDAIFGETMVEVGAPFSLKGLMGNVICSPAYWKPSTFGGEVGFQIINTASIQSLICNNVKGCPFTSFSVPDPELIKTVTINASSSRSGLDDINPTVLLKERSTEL

[2] = target: T2, Human COX-1 (Homo sapiens, UniProt P23219); experiment: Human COX-1 Inhibitory Activity Test (TXB2 in blood); assay type: cell-based; details: IC50 from Hill Plot
T2 construct: endogenous in cells; host or cells: whole blood of a healthy human donor (own knowledge: TXB2 of clotting blood comes from platelet COX-1)
Description: COX-1 and COX-2 activities were measured according to the method of Patrignani et al. (J. Pharm. Exp. Ther. Vol. 271, 1705 (1994)).
(1) COX-1 activity was measured in the following procedure. […] The serum obtained by 10 minutes of centrifugation at 2000 rpm at 4° C. was stored at -40° C. until the measurement of the amount of thromboxane B2 (TXB2). The test samples, which had been dissolved in ethanol and diluted to the specified concentrations, were previously dispensed into the glass test tubes, and the solvent was evaporated to dryness by Centrifugal Vaporizer (CVE-200D, manufactured by Tokyo Rika Mfg. Co., Ltd.) so that the test samples were added to the plasma.
(3) The measurement for the TXB2 content was conducted in the following procedure. In a part of a 96 well plate coated with anti-rabbit IgG antibody, 2 wells were allotted respectively to blank well, Non-specific Binding (NSB) well, Maximum Binding (B0) well, standard wells at 7 concentrations of TXB2 (1000 pg/ml) in doubling dilution ranging from 1000-15.6 pg/ml. The rest of the wells were used for the measurement of the samples. EIA buffer was added to the NSB wells (100 μl ) and B0 wells (50 μl), respectively. 50 μl of each of the standard dilution was added in an order from thinner to thicker concentrations. Each of the samples was added to the rest of the wells in an amount of 50 μl. Then, 50 μl of TXB2 tracer was added to each of the wells except for the blank wells. Further, 50 μl of TXB2 antibody was added to each of the wells except for the NSB wells and blank wells, then the well plate was covered with a plastic film and the reaction continued for 18 hours at room temperature. When the reaction was terminated, the wells were washed 5 times with a wash buffer. 200 μl of Elman's reagent was added to each of the wells and then the well plate was covered with a plastic film and developed for 60 minutes in a dark place. The absorbance at 405 nm was measured by an Immuno Reader (NJ-2000, manufactured by Nippon Intermed Co., Ltd.). From the measurement result, %B/B0 was calculated and, applying it to the approximation formula of Hill Plot, the concentration of the samples was determined to be 2,000 times concentration. […]

[3] = test system: carrageenan footedema; experiment: Carrageenan Footedema Suppression Test; assay type: in vivo, SD rats; details: oral; paw volume three hours after carrageenan administration
Description: The carrageenin footedema suppression test was conducted according to the method of Winter et al. (J. Pharm. Exp. Ther., Vol.141, 369 (1963)). The test samples suspended in Tween 80 were administered orally to SD rats (6 rats per 1 group) in an amount of 1 ml per 100 g of the body weight, while only the solvent was administered in the same manner as above as a control. One hour after the administration, 1% carrageenan physiological saline was injected subcutaneously to the rats in the plantar area of the right hind paw. Three hours after the carrageenan administration, the paw volumes were measured and the edematization rate (%) was calculated with Formula 1 and then edematization suppression rate (%) was calculated with Formula 2.
Edematization rate (%)=((paw volume after carrageenan injection- paw volume before carrageenan injection)/(paw volume before carrageenan injection)×100 Formula: 1
Edematization suppression rate (%)=((edematization rate of control-
edematization rate of test samples)/edematization rate of […]

T2 sequence (P23219 24-599): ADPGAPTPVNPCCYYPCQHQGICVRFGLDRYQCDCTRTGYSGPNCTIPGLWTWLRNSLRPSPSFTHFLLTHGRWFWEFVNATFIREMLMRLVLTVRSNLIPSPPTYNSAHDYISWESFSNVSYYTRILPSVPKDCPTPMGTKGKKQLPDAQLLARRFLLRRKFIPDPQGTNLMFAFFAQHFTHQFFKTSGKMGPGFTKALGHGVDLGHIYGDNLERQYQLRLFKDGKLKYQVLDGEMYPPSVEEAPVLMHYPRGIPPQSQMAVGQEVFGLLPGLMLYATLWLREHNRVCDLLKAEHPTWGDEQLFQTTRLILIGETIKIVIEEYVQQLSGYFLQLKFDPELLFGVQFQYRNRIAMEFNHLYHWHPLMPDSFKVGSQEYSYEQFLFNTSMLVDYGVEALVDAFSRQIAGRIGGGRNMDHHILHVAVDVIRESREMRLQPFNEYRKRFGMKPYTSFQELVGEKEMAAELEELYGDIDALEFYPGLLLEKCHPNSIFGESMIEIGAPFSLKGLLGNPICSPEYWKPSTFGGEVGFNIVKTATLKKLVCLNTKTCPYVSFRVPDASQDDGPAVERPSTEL

- IC50 [2]: 373 µM
Structure (SMILES): CS(=O)(=O)c1ccc(-c2[nH]ccc2-c2ccc(F)cc2)cc1 [Control compound (b), 4-(4-fluorophenyl)-5-(4-methylsulfonylphenyl)-1H-pyrrole, reference compound]
- COX-1/COX-2 (value specified in the literature) [1]: 29.4
- Edematization Suppression rate [3]: -1.8%
